In general, Kd refers to the concentration at which binding is half-saturated.

Activity calls are given as the source filed them. Where only a bound is given, the exact number is not on record here.

Assay [1] concerns the target Calcium/calmodulin-dependent protein kinase type II subunit gamma (Homo sapiens, UniProt Q13555).
The target of assay [2] is T1, DNA replication licensing factor MCM4 (Homo sapiens, UniProt P33991).
T1 sequence (P33991 whole entry): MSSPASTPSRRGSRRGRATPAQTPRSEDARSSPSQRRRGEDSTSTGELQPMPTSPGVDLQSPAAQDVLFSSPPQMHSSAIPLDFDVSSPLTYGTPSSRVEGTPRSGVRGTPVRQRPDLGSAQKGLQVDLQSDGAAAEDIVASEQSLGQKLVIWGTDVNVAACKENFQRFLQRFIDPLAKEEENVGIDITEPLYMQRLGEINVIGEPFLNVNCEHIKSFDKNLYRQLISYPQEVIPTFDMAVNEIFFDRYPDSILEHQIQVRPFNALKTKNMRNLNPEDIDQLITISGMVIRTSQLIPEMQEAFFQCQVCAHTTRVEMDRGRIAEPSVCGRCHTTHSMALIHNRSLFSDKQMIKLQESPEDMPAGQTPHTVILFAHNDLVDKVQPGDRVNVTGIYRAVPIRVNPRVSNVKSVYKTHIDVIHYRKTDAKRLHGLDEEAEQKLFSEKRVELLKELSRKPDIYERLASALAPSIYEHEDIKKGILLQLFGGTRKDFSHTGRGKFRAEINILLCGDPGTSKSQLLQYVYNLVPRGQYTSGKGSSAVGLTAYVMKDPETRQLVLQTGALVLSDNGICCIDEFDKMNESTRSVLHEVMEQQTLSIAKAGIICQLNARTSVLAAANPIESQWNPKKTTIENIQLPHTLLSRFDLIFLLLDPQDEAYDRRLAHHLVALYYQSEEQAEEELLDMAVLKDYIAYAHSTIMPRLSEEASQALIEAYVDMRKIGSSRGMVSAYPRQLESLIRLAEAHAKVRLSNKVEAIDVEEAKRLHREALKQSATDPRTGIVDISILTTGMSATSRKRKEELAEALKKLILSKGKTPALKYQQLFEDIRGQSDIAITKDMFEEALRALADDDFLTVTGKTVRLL

For a further assay, the target named is T2, Pyridoxal kinase (Homo sapiens, UniProt O00764).
T2 sequence (O00764 whole entry): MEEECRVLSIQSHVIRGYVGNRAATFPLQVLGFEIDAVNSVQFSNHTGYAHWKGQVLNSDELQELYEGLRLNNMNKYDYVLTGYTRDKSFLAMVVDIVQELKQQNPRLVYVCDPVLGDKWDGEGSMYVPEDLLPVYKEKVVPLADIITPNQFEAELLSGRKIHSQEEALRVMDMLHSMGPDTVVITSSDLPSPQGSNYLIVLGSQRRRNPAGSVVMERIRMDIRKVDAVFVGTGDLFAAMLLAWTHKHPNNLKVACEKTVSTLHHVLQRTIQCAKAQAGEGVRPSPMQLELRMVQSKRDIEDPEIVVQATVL

Assay [3] addresses T3, Phosphatidylinositol 5-phosphate 4-kinase type-2 gamma (Homo sapiens, UniProt Q8TBX8).
T3 sequence (Q8TBX8 whole entry): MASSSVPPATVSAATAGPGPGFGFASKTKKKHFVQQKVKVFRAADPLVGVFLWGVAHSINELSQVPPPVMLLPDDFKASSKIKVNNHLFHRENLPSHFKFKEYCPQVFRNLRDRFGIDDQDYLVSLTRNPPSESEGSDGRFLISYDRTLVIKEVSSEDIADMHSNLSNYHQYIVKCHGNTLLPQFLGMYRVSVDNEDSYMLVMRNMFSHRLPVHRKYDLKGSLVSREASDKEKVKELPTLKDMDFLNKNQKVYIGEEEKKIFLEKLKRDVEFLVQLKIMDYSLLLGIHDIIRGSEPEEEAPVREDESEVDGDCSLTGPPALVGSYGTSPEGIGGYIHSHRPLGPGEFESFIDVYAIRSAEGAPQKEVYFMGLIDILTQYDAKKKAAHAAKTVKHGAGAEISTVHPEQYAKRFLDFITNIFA

For assay [4], the target named is STE20-like serine/threonine-protein kinase (Homo sapiens, UniProt Q9H2G2).
Sequence of STE20-like serine/threonine-protein kinase (Q9H2G2 whole entry): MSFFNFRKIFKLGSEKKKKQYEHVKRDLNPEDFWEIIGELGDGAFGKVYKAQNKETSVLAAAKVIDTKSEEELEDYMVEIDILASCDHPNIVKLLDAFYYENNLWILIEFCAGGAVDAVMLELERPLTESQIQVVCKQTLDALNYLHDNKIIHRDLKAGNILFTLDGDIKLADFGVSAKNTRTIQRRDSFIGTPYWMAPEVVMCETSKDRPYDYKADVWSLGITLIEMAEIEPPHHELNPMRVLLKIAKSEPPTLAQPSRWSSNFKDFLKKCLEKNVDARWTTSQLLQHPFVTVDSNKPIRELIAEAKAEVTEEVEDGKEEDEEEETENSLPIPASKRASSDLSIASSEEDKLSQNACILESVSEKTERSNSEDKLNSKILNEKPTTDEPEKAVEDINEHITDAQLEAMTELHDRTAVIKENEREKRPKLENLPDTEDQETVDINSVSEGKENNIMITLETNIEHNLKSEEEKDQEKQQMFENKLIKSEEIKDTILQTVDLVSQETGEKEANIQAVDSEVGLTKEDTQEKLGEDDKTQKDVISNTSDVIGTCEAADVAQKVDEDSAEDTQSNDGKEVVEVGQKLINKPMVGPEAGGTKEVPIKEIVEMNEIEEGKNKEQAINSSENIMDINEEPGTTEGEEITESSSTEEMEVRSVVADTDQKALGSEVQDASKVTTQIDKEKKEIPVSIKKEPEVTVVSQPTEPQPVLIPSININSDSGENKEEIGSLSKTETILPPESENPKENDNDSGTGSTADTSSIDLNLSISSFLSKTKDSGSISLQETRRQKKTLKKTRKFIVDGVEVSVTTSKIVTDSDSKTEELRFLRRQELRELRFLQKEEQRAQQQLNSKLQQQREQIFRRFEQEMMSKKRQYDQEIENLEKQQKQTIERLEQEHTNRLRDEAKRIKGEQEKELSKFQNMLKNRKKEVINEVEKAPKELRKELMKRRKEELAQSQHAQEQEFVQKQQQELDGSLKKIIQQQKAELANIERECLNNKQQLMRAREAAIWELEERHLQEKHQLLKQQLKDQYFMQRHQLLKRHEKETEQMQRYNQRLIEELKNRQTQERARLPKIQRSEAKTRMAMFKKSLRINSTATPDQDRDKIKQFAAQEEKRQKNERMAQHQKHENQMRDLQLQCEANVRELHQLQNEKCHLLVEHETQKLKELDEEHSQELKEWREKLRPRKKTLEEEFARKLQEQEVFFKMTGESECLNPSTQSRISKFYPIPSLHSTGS
Assay [5] has as its target Cyclin-dependent kinase 17 (Homo sapiens, UniProt Q00537).
Assay [6] addresses T4, Acyl-CoA dehydrogenase family member 11 (Homo sapiens, UniProt Q709F0).
T4 sequence (Q709F0 whole entry): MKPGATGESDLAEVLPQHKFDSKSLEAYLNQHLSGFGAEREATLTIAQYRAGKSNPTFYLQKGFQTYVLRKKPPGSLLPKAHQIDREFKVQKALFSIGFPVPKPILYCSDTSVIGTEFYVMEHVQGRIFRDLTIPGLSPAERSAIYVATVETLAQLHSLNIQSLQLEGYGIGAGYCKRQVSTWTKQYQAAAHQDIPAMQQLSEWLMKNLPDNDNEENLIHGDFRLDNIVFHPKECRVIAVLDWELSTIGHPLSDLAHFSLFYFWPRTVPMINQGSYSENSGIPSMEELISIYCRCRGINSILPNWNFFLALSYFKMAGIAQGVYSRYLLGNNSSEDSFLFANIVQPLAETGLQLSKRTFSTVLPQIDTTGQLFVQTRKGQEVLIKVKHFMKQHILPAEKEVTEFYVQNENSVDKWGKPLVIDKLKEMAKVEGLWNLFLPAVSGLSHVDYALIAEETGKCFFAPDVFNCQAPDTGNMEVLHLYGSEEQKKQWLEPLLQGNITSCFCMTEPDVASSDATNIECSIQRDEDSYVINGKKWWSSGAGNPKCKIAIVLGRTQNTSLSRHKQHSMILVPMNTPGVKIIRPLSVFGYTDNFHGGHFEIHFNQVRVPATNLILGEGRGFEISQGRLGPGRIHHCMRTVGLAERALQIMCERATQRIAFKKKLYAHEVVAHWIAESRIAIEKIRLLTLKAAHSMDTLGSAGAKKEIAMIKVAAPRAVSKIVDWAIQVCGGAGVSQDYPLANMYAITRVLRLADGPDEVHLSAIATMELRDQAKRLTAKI
Also: in the data inactive means no Kd found up to 30 µM.

Sequence of Calcium/calmodulin-dependent protein kinase type II subunit gamma (Q13555 whole entry): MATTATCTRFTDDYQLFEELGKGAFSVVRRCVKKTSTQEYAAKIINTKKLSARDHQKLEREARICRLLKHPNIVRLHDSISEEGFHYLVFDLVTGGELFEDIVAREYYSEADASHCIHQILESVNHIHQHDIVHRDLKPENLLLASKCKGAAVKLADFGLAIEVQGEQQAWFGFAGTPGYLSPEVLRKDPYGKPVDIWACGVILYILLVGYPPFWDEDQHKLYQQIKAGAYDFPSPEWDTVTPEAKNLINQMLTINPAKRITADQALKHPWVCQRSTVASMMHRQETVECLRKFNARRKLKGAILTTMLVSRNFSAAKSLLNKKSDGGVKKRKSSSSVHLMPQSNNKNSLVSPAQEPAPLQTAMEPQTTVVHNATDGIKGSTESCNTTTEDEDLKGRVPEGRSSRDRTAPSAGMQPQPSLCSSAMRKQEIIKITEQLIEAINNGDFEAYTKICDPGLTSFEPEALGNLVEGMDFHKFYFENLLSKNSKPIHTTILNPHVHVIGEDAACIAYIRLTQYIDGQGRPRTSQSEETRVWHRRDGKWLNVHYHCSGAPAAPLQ
Sequence of Cyclin-dependent kinase 17 (Q00537 whole entry): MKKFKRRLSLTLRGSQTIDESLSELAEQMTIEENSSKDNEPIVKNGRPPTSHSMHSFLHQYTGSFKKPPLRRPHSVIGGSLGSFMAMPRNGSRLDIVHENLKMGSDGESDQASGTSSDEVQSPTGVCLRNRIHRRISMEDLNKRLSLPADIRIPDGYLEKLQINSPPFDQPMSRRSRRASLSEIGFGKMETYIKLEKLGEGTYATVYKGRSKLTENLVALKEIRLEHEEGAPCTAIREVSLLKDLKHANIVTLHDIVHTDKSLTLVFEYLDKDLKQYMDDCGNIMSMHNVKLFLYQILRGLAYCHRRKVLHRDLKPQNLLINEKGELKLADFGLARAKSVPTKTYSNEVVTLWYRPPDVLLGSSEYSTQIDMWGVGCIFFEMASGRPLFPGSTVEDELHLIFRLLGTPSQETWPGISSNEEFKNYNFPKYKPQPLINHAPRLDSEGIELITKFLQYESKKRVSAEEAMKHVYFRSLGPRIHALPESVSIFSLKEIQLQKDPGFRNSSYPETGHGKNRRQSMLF

For the compound `C[C@@H](Oc1cc(C(=O)Nc2ccc(C(=O)N3CCN(C)CC3)cc2)nnc1N)c1c(Cl)ccc(F)c1Cl`, the Kd (in assay [1]; in assay [2]; at Pyridoxal kinase; in assay [3]; in assay [4]) was > 30 µM (inactive) throughout.

`CC(=O)c1cnc2ccc(-c3cc(Cl)c(O)c(Cl)c3)nc2c1N[C@H]1CC[C@H](CN(C)C)CC1`: the Kd in assay [1] is > 30 µM (inactive); in assay [5] it was > 30 µM (inactive); in assay [2] it was > 30 µM (inactive); on Pyridoxal kinase, > 30 µM (inactive); in assay [3], 0.003 µM; in assay [4], 0.113 µM (active).

In the case of `Nc1ncnc2c1c(-c1cccc(OCc3ccccc3)c1)cn2[C@H]1C[C@@H](CN2CCC2)C1` [AEW-541], the Kd (in assay [1]; in assay [5]; in assay [2]; at Pyridoxal kinase; in assay [3]; in assay [4]) was > 30 µM (inactive) in each case.

As for `COc1cc(Nc2ncc3c(n2)-c2ccc(Cl)cc2C(c2c(F)cccc2OC)=NC3)ccc1C(=O)O` [ALISERTIB], the Kd in assay [6] was > 30 µM (inactive); in assay [5], > 30 µM (inactive); in assay [2] it was 0.629 µM; on Pyridoxal kinase it was > 30 µM (inactive).

Take `Cc1nc(NC(=O)N2CCC[C@H]2C(N)=O)sc1-c1ccnc(C(C)(C)C(F)(F)F)c1` [ALPELISIB]: the Kd (in assay [6]; in assay [1]; in assay [2]; on Pyridoxal kinase; in assay [4]) was > 30 µM (inactive) throughout.

On to `Cc1csc(-c2nnc(Nc3ccc(Oc4ncccc4-c4ccnc(N)n4)cc3)c3ccccc23)c1` [AMG-900], for which the Kd (in assay [6]; in assay [1]; in assay [5]; in assay [2]; at Pyridoxal kinase; in assay [4]) was > 30 µM (inactive) in each case.

As for `C=CC(=O)Nc1cc2c(Nc3ccc(F)c(Cl)c3)ncnc2cc1C#CC(C)(C)N1CCN(C)CC1` [AV-412 FREE BASE], the Kd in assay [1] was > 30 µM (inactive); in assay [2], > 30 µM (inactive); on Pyridoxal kinase it was > 30 µM (inactive); in assay [3], > 30 µM (inactive); in assay [4] it was 13.4 µM (active).

`CNC(=O)c1ccccc1Sc1ccc2c(/C=C/c3ccccn3)n[nH]c2c1` [AXITINIB]: the Kd (in assay [6]; in assay [2]; on Pyridoxal kinase) was > 30 µM (inactive) throughout.

For `COc1cc([C@@H]2c3cc4c(cc3[C@H](O)[C@H]3COC(=O)[C@@H]23)OCO4)cc(OC)c1OC` [AXL-1717], the Kd (in assay [1]; in assay [5]; in assay [2]; on Pyridoxal kinase; in assay [3]; in assay [4]) was > 30 µM (inactive) in each case.

For `Cn1cc(C2=C(c3cn(C4CCN(Cc5ccccn5)CC4)c4ccccc34)C(=O)NC2=O)c2ccccc21` [ENZASTAURIN], the Kd (in assay [2]; at Pyridoxal kinase) was > 30 µM (inactive) throughout.

Turning to `Cc1nc2cc(-n3ncc(C(=O)c4cc5ccccc5[nH]4)c3N)ccc2[nH]1` [FGFR INHIBITOR DEBIO 1347], the Kd was > 30 µM (inactive) in assay [1]; > 30 µM (inactive) in assay [5]; > 30 µM (inactive) in assay [2]; 2.11 µM (active) on Pyridoxal kinase; > 30 µM (inactive) in assay [3]; > 30 µM (inactive) in assay [4].

Consider `C[C@@H](Oc1cc(-n2cnc3ccc(CN4CCN(C)CC4)cc32)sc1C(N)=O)c1ccccc1C(F)(F)F` [GSK-461364], for which the Kd (in assay [6]; in assay [2]; on Pyridoxal kinase) was > 30 µM (inactive) in each case.

Take `CCn1cc(-c2ccnc3[nH]c(-c4cccc(CN(C)C)c4)cc23)c(-c2ccc(NC(=O)N(C)C)cc2)n1` [GSK-1070916]: the Kd (in assay [6]; in assay [1]; in assay [5]; in assay [2]; at Pyridoxal kinase; in assay [4]) was > 30 µM (inactive) each time.

As to `CNC(=O)c1nn(C)c2c1C(C)(C)Cc1cnc(Nc3ccc(N4CCN(C)CC4)cc3)nc1-2` [MILCICLIB], the Kd in assay [6] was > 30 µM (inactive); in assay [1], > 30 µM (inactive); in assay [2] it was > 30 µM (inactive); on Pyridoxal kinase, > 30 µM (inactive); in assay [3] it was 1.43 µM (active); in assay [4], > 30 µM (inactive).

For the compound `CN(C[C@@H]1COCCO1)S(=O)(=O)Nc1ccc2ccc3ncc(-c4cnn(C)c4)cc3c(=O)c2c1` [MK-2461], the Kd is > 30 µM (inactive) in assay [1]; > 30 µM (inactive) in assay [5]; > 30 µM (inactive) in assay [2]; > 30 µM (inactive) on Pyridoxal kinase; 1.03 µM (active) in assay [3]; > 30 µM (inactive) in assay [4].

With `Cc1[nH]c(/C=C2\C(=O)Nc3ccccc32)c(C)c1CCC(=O)O` [ORANTINIB], the Kd (in assay [6]; in assay [5]; in assay [2]; at Pyridoxal kinase) was > 30 µM (inactive) each time.

`NC(=O)c1c(OCc2c(F)cc(Br)cc2F)nsc1NC(=O)NCCCCN1CCCC1` [OSI-632]: the Kd (in assay [6]; in assay [2]; at Pyridoxal kinase) was > 30 µM (inactive) throughout.

For the compound `O=C(NOCCO)c1cc(CN2OCCCC2=O)c(F)c(F)c1Nc1ccc(I)cc1F` [RO-4987655], the Kd (in assay [6]; in assay [2]; on Pyridoxal kinase) was > 30 µM (inactive) each time.

As for `N#CC[C@H](C1CCCC1)n1cc(-c2ncnc3[nH]ccc23)cn1` [RUXOLITINIB], the Kd in assay [6] was > 30 µM (inactive); in assay [1], 0.259 µM (active); in assay [2], > 30 µM (inactive); at Pyridoxal kinase, > 30 µM (inactive).

On to `Cn1ncc(Cl)c1-c1cc(C(=O)N[C@H](CN)Cc2ccc(F)c(F)c2)oc1Cl` [UPROSERTIB], for which the Kd (in assay [1]; at Pyridoxal kinase; in assay [3]; in assay [4]) was > 30 µM (inactive) each time.

Values taken from ChEMBL document CHEMBL3991601, “The target landscape of clinical kinase drugs” (Science, 2017).
